Measured values reported in PMC8802628, “Selective activation of PFKL suppresses the phagocytic oxidative burst” (Cell, 2021).

What was measured:
[1] = molecular target: T1, 14-3-3 protein beta/alpha (YWHAB) (Homo sapiens, UniProt P31946); assay: Photoaffinity labeling pull-down (Data S1); format: binding; details: Comparison PALP1_NA11-PALP1
T1 construct: endogenous in cells; host or cells: human blood leukocytes, labelled live
Procedure: Buffy coats (100 mL) were diluted with ice-cold water (540 mL) for 30 s to lyse red blood cells. Following addition of 10 x HBSS buffer (50 mL) leukocytes were pelleted for 3 min at 300 x g, then washed twice in D-PBS and resuspended in RPMI medium. Cells (2 × 10^7) were plated on 15-cm dishes in DMSO vehicle, 1 μM PALP1 or 1 μM PALP6 for 30 min at 37°C. For competition, 10 μM NA-11 was added for 15 min, and then 1 μM PALP1 was added for an additional 30 min. To crosslink the photoaffinity probe, cells were UV-irradiated (High intensity mercury spot lamp, 100W, 365 nm, UVP) in RPMI for 5 min on ice. Cells were lysed in 200 μL 10 mM Tris pH 7.5, 150 mM NaCl, 1% NP-40, 2.5 mM MgCl2, 0.5 mM CaCl2, 2% glycerol, 10 μg/mL DNase-I, and 1 x EDTA-free Protease inhibitor cocktail. Lysates from 5 plates for each condition were pooled and incubate 10 min on ice.
Biotin-DADPS tagging, biotin-streptavidin affinity purification, and on-bead digestion were performed as described ([Hewings et al., 2018]). Briefly, lysates were cleared by centrifugation and the lysate concentration adjusted to 5 mg/mL. Streptavidin Ultralink Resin (100 μL of 50% slurry, Pierce) was washed twice with PBS and mixed with 1 mL of lysate for 30 min at room temperature. […]
For the classical TPP, quantitative data from each temperature were used to generate a thermal titration curve and calculate a melting point. […]

PMNs = assay: Phagocytosis of zymosan particles by PMNs; format: cell-based, human; details: neutrophils, zymosan 2 h
Procedure: Figure S7. NA-11 activates PFKL to prevent the oxidative burst and impair neutrophil defenses, related to Figures 4 and 6
(A) PFK1 activity in PMN lysates. Cells were pretreated with 0.5 mM NA-11, 5 mM LDC7559, 100 mM apocynin, 200 mM thionicotinamid e (TN), 1 mM MEK inhibitor U0126, or DMSO vehicle for 30 min, or 1 mM proteasome inhibitor bortezomib for 1 h, and then activated with 50 nM PMA for 30 min where indicated. Bars represent the mean ± s.d. of cells from 3 donors. (B) NADH:NAD+ ratio in PMA-activated PMNs. Cells were pretreated with 0.5 mM NA-11 or DMSO vehicle for 30 min, and then activated with 50 nM PMA for 30 min. Data are the mean ± s.d. of cells from 3 donors. (C) Immunolabeling of citrullinated histone H3 (magenta) and myeloperoxidase (red) in PMNs pretreated with 0.5 mM NA-11 or DMSO vehicle for 30 min and then stimulated for 4 h with 50 nM PMA, 10 mg/mL extracellular LPS, 0.5 mg/mL cholesterol crystals, or 25 mM nigericin. Chromatin is stained green. Scale bar, […]. Results are representative of 3 independent experiments.
(D) Fluorescence micrographs of PMNs pretreated with 0.5 mM NA-11, 200 mM thionicotinamide (TN), 0.5 mM NA-4, or DMSO vehicle for 30 min, and then incubated with serum-opsonized Texas Red-conjugated zymosan particles (10 mg/mL) for 2 h. […]

T1 sequence (P31946 whole entry): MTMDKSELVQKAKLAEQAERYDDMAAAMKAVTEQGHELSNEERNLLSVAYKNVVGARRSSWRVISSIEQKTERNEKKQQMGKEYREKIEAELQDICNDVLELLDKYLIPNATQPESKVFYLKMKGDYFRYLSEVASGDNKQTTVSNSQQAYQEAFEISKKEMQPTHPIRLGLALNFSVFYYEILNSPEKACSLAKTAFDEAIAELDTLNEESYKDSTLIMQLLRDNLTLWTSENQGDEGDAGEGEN

For `CC(=O)Nc1ccc2c(c1)OCc1cc(-c3ccccc3C#CCCCO)nn1C2` [NA-11], the log2FC [1] was 0.13 and the “phagocytosis (intracellular zymosan particles)” value (PMNs) was “neither NA-11 nor TN affected phagocytosis”.
